# Tests used:
# [1] = system: RAW 267.4 cells; assay: ApoTox-Glo Triplex assay in RANKL treated osteoclast cells; format: cell-based, mouse; conditions: 72 hours after treatment
# Protocol: FIG. 5 represents the improved efficacy seen with KBU2046 combined with ZA. In FIG. 5A bone degradation was tested using osteo assays performed as in FIG. 4D. Cells were treated with KBU2046 (46), ZA at 2, 10 or 20 μM, with the indicated combinations, or vehicle (control; CO). Data are the mean±SEM (N=3 replicates); * denotes P<0.05 compared to control, or between conditions denoted by bars. FIG. 5B provides representative photomicrographs of osteo assay wells. Black color denotes presence of bone matrix; RL: RANKL. (FIGS. 5C-5E) Cell viability, cytotoxicity and apoptosis. RAW 267.4 cells were treated with RANKL, at day 4 they were treated with KBU2046, ZA at 1 or 10 μM (ZA1 or ZA10), the indicated combination, or vehicle (CO) and Triplex assay performed 24, 48 or 72 hours later, per Methods. Data are the mean±SEM (N=4 replicates); ¥, #, * denotes P<0.05 compared to control. (FIGS. 5F-5H) In vivo efficacy. Four cohorts of mice, N=15/cohort, were given intracardiac injections of PC3-luc cells, yielding the following successful injections: N=12 control, N=12 ZA, N=13 KBU2046 and N=13 ZA+KBU2046. Treatment was oral 150 mg KBU2046/kg daily (starting 3 days before IC injection), intraperitoneal ZA 100 μg/kg weekly (starting 1 week before IC injection), with oral and intraperitoneal vehicle controls given as indicated. […] (FIGS. 5C and 5D) Quantification of bone lesions. The macroscopic lesions in the jaw were quantified by direct measurement from CT images, and expressed as the mean±SEM percent of control. Bone density of femurs was measured from CT images, and expressed as the mean±SEM percent of control. * denotes P<0.05 compared to control, and for groups indicated by bars.
# We next examined the effect of ZA and KBU2046 on osteoclast cell viability, apoptosis and cytotoxicity. RAW 267.4 cells were treated with RANKL for the duration of the experiment, at day 4 they were then treated with ZA, KBU2046, the combination, or vehicle (for controls), and effect on cell viability, apoptosis and cytotoxicity measured by Triplex assay at 24, 48 and 72 hours after treatment (FIGS. 5C-5E). […]
# [2] = system: RAW 267.4 cells; assay: Osteoclast morphology and maturation (actin/DAPI immunofluorescence, TRAP staining); format: cell-based, mouse
# Text: Treatment of RAW 267.4 cells with KBU2046 induces several structural and functional changes. It reduces RANKL-mediated formation of multinucleated cells, and those that do form have lower numbers of nuclei (see 40× panels, FIG. 4B). The characteristic prominent actin ring (white arrow) surrounding the resorptive cavity (yellow arrow) is readily apparent in control cells treated with RANKL ligand, but is lacking in KBU2046-treated cells (100×, panels). Consistent with it inhibiting maturation of RAW 267.4 cells, TRAP staining is decreased in KBU2046-treated cells (FIG. 4C).
# FIG. 4 represents the KBU2046 inhibition of osteoclast function. FIG. 4A compares effects on Raf1 activation. RAW 267.4 cells were treated with RANKL for 4 days, treated with 10 μM KBU2046 for the indicated time periods, and Western blot for the denoted proteins performed. (B) Effects on cell morphology. RAW 267.4 cells were treated with RANKL and with KBU2046 for 4 days, or not, and denoted, and stained for actin (green) and DAPI (blue); white arrow denotes an actin ring, yellow arrow a resorptive cavity. Representative immunofluorescent images are depicted. (C) Tartrate resistant acid phosphatase (TRAP) expression. Cells were treated as in B, stained for TRAP (denoted by presence of red), and representative images from light microscopy depicted. (D) Bone degradation. RAW 267.4 cells were plated onto Osteo Assay plates, treated with RANKL for 6 days and with KBU2046 (or vehicle for controls) as indicated and bone surface area quantified. Data are the mean±SEM (N=3 replicates) of bone surface area, expressed as the percentage of control cells; * denotes P<0.05 compared to control.
# Raw 264.7 cells were grown in differentiation medium (described below), with or without KBU2046, for 4 days on a Chamber Slide (Nunc Lab-Tek). Chambers were washed once with PBS, followed by 10-minute fixation in cold 10% neutral-buffered formalin (VWR) and a post-fixation wash with PBS. […] The cells were then incubated for 2 hours at 4° C. in Dylight Phallodin (Cell Signaling technology, #12935) antibody diluted 1:40 in 1×PBS with 1% BSA and 0.3% Triton X-100. Subsequently, the slide was washed once with PBS, a coverslip mounted with ProLong Gold Antifade Reagent with DAPI (Cell Signaling Technology, #8961), and imaged on a Confocal Microscope (Nikon/Yokogawa Spinning Disc).
smiles,measurement,setting,value
"O=C1c2ccccc2OCC1c1ccc(F)cc1 (stereo not shown) [KBU2046, 3-(4-fluorophenyl)chroman-4-one]",cell viability,[1]; compared to control,significant increases
same,cytotoxicity,[1]; compared to control,decreases
same,apoptosis,[1]; compared to controls,significant increase
same,RANKL-mediated formation of multinucleated cells,[2]; RANKL and KBU2046 for 4 days,reduces
same,TRAP staining,[2]; RANKL and KBU2046 for 4 days,decreased
same,actin ring surrounding the resorptive cavity,[2]; RANKL and KBU2046 for 4 days,lacking
same,cellular extensions of undifferentiated cells,[2]; absence of RANKL,markedly reduces
